Publication PMC7171691 (Journal of Tropical Medicine, 2020)
≈ marks a conversion by molar mass, not a printed value. Entries after “also recorded” stand apart in the source; their conditions may differ. Like-named read-outs stand apart in the source and are kept apart here.

Key:
[1] = test system: P. berghei ANKA; experiment: In vivo efficacy, 4-day oral treatment of infected mice; design: species or system Plasmodium berghei in female Swiss albino mice; details: for ED50: P. berghei ANKA sensitive strain in mice, four days of oral treatment; for Number of mice which survived up to 11 days: 5 mice per group; for Average parasitaemia, Day 7 / Average parasitaemia, Day 9 / Average parasitaemia, Day 11: after stopping the treatment with 10 mg/kg
Protocol: Female Swiss albino mice were collected and kept in the animal house of the Center for Biotechnology and Research Development at the Kenya Medical Research Institute (KEMRI), where the animal experiments were carried out. The animals were six weeks old, weighing 20 to 22 g, and they were kept in mice cages and were allowed to access mice pencils (Ungafeed Company Ltd) and water before experimental testing. Plasmodium berghei ANKA strains, sensitive to quinolone and artemisinin-based drugs, were obtained from the Unit of Malaria, Center for Biotechnology and Research and Development, Kenya Medical Research Institute. Parasites were maintained and cryopreserved in a freezer (−80°C). The parasite was subsequently maintained in the laboratory by serial blood passage from mouse to mouse on a weekly basis.
This consisted of in vivo evaluation of hybrid drug against P. berghei ANKA, a rodent parasite which is commonly used in antimalarial studies. Female Swiss albino donor mouse was injected intraperitoneally with 0.2 ml of inoculums of 1 × 10^7 parasitized erythrocytes, and P. berghei ANKA strain was obtained from the donor mouse. Parasitaemia was assessed after 5 days under microscope using the Giemsa staining technique. The donor mouse was sedated using carbon dioxide to collect blood via cardiac puncture in a heparinized tube using a syringe and a needle. Carcasses were pooled in a biohazard container and stored at room temperature while waiting to be incinerated. Afterward, the experimental mice were infected with inoculums of 1 × 10^7 parasitized erythrocytes using an intraperitoneal method. The mice were grouped into five groups consisting of 5 mice per group. […] Blood for making thin blood smear was collected from the tip of the mouse tail. The efficacy of the drug was measured by comparison of blood parasitaemia after the four days of therapy (i.e., on day 5 postinfection). The ones still alive at the end of the experiments were killed by using carbon dioxide gas followed by incineration.
The determination of the dose to be administered was calculated individually according to each mouse weight. In this regard, these formulas were applied: HED (mg/kg) = Animal Dose (mg/kg) ∗ [Animal km/Human km], where HED stands for human equivalent dose and km which is a conversion factor. With km (a constant) = Weight/Body surface area. For mice of 0.02 kg, with a body surface area of 0.007, km = 0.02/0.007 = 3 [15].(3) Dosage mg/kg =Drug concentration mg/ml∗Volume ml/Body weightkg.
From formula (2),(4) Volume ml of drug to be given to each mouse=Body weight kg∗Dosage mg/kg/Drug concentration mg/ml .
The parasitaemia was checked for every 24 hours from the time of infection for 4 days. Thin blood smears were prepared from each mouse tail venous blood. The smears were prepared by the Giemsa staining technique, and the parasitaemia of individual mouse had been checked using a light microscope. The following formula was used to calculate the percentage parasitaemia:(5) The Percentage of parasitaemia=Number of parasitized RBCs/field/Total number of RBCs/field ∗100.
After 4 days, the percentage (%) chemosuppression of each drug was determined using the following formula [17]:(6) Percentage chemosuppression= 100−A−B/A×100, where A is the mean parasitaemia in the negative control group and B is the parasitaemia in the test group. The dose that cured 50% of infected animals had been determined as effective dose (ED50) using a nonlinear regression logistic dose-response model.

[2] = test system: P. falciparum 3D7 strains (CQ sensitive); experiment: In vitro drug sensitivity, tritiated hypoxanthine incorporation assay; type: cell-based, Plasmodium falciparum; details: P. falciparum 3D7, CQ sensitive, [3H]hypoxanthine uptake, 48 hours
Protocol: Further dilutions were prepared on the day of biological assays. All the drug solutions were stored at 4°C for later use.

[3] = MTT cytotoxicity assay; type: cell-based, African green monkey (Cercopithecus aethiops); details: African green monkey (Cercopithecus aethiops)
Protocol: (§1) To conduct in vitro toxicity, stock solutions of the test compound and reference drugs were prepared with sterile water. […] The test samples were prepared as a 1 mg·ml^−1 stock solution. Further dilutions were prepared on the day of biological assays. All the drug solutions were stored at 4°C for later use. Vero cells (Vero E-6) were obtained from the Center for Traditional Medicine Drugs and Research (CTMDR), KEMRI. Vero cells are kidney cells extracted from an African green monkey (Cercopithecus aethiops). […] Cells were maintained in Minimum Essential Eagle's Medium (MEM) containing 10% fetal bovine serum (FBS), PenStrep, and glutamine. Vero cells were cultured using T-75 culture flasks. The flasks were kept at 37°C in 5% CO2, and the cells were passaged every 2 to 3 days to keep the cells alive. Trypsinization was carried out to detached cells which overlap each other and counted using a hemocytometer (Neubauer).
(§2) Using a 96-microwell plate, a cell density of 20,000 vero cells were seeded and incubated for 24 hours at 37°C under 5% CO2 to allow cells to attach to the surface/base of the plate. […] The plates were incubated for 48 hours at 37°C under 5% CO2 to allow the reaction to occur. After 48 hours, 0.5 mg/ml of 3-(4, 5-dimethylthiazol-2-yl)-2,5-diphenyltetra-zolium bromide (MTT) was added for calorimetric measurement of the ability of a drug to kill the vero cell lines. The plates were incubated at 37°C for 3 hours. 100 μL of 100% DMSO was added to each well and mixed to ensure cell lysis and dissolving of the formazan crystals. Doxorubicin was used as a control drug.
(§3) The amount of formazan measured was directly proportional to the number of viable cells.

[4] = test system: vero cells (Vero E-6); experiment: MTT cytotoxicity assay; type: cell-based, African green monkey (Cercopithecus aethiops); details: vero cells
Protocol: as §1, §2, §3

[5] = Acute oral toxicity in mice; type: in vivo; details: for Number of dead mice: 3 mice per group, head says after 28 days, text 14 days, listed as sarcosine-aniline hybrid drug; for Mean average of weight after 14 days: initial weights 20 to 22 g
Protocol: In this step, acute toxicity was performed. Three dosages, such as 2000 mg·kg^−1, and 300 mg·kg^−1, and 50 mg/kg were administered orally to mice in three groups, and the fourth group which served as a control received water as a placebo. Each group consisted of 3 mice, and the weight and number of dead mice were monitored and recorded after each 4 days over an interval of 14 days. Clinical or physical signs were also subjected to be recorded during the study period. At the end of the experiment, the mice were killed by using concentrated carbon dioxide gas followed by incineration. The number of dead mice was to be recorded, and a semilog plot of log concentration against percentage (%) response was made.

[6] = Solubility observations; type: physicochemical
[7] = Acute oral toxicity in mice; details: mouse, in vivo, 28 days
[8] = design: method as in PMID 21189459; details: 20 mg/kg, oral route, mice; cited from earlier work
[9] = test system: vero cells; details: cited from earlier work
[10] = design: method as in PMID 23433124; details: cited from earlier work
[11] = test system: acute falciparum malaria; details: patients, 0 to 250 mg artesunate together with a curative dose of mefloquine; cited from earlier work
[12] = Plasmodium falciparum, read-out: IC50
[13] = Plasmodium berghei, 96 h, read-out: ED50
[14] = 10 mg/kg oral, after 4 days of treatment

Compound	ED50 [1]	Number of mice which survived up to 11 days ([1]; dosage 0.625 mg/kg oral)	Number of mice which survived up to 11 days ([1]; dosage 1.25 mg/kg oral)	Number of mice which survived up to 11 days ([1]; dosage 2.5 mg/kg oral)	Number of mice which survived up to 11 days ([1]; dosage 5 mg/kg oral)	Number of mice which survived up to 11 days ([1]; dosage 10 mg/kg oral)	Average parasitaemia, Day 7 [1] [%]	Average parasitaemia, Day 9 [1] [%]	Average parasitaemia, Day 11 [1] [%]	Percentage of chemosupression of parasitaemia [1, 14] [%]	also measured
C[C@H]1[C@H](OC(=O)CCC(=O)Nc2ccc(Oc3ccc(Cl)cc3)c(Cl)c2)O[C@@H]2O[C@@]3(C)CC[C@H]4[C@H](C)CC[C@@H]1[C@@]24OO3 [Artesunate-aniline hybrid]	3.56 mg/kg	1	3	3	2	3					
CNCC(=O)Nc1ccc(Oc2ccc(Cl)cc2)c(Cl)c1 [Sarcosine-aniline hybrid, 3-Chloro-4(4-chlorophenoxy) Methyglycylanilde]		1	1	1	2	3	9.74	12.98	15.61		IC50 [2, 12]: 0.0448 ± 0.0047 µg/mL (≈ 0.138 µM); ED50 [1, 13]: 6.49 mg/kg; CC50 at 48 h ([3]; Vero E-6 cells, vero cells, MTT, 48 hours, triplicate, read-out: Mean CC50): 50.2 µg/mL (≈ 154 µM); Mean difference of CC50 versus artesunate ([4]; sarcosine-aniline hybrid VS artesunate, in µg/mL): 30.48; Mean difference of CC50 versus chloroquine ([4]; sarcosine-aniline hybrid VS chloroquine): -7.78; Mean difference of CC50 versus doxorubicin ([4]; sarcosine-aniline hybrid VS doxorubicin, in µg/mL): 48.21; Number of dead mice ([5]; 50 mg/kg oral): No mouse died; Mean average of weight after 14 days ([5]; 50 mg/kg oral): 22.24 g; Number of dead mice ([5]; 300 mg/kg oral): No mouse died; Mean average of weight after 14 days ([5]; 300 mg/kg oral): 21.58 g; Number of dead mice ([5]; 2000 mg/kg oral): No mouse died; Mean average of weight after 14 days ([5]; 2000 mg/kg oral): 21.34 g; Therapeutic index (LD50/ED50) ([5]; LD50 >5000 mg/kg, ED50 6.49 mg/kg): greater than 770.41; LD50 at 14 days ([5]; mouse, in vivo, oral, mice, estimated from no deaths at 2000 mg/kg): > 5000 mg/kg; OECD/OCDE guideline toxicity category ([5]; oral acute toxicity, mice): category 5; Therapeutic index relative to that of artesunate ([5]; versus artesunate therapeutic index of 4 from Xie et al. [31]): 192.6 fold; Solubility in dimethyl sulfoxide (DMSO) ([6]; DMSO): soluble; Solubility in Tween 80 ([6]; Tween 80): slightly soluble; Solubility in water [6]: very low; Number of dead mice [7]: 0
CCN(CC)CCCC(C)Nc1ccnc2cc(Cl)ccc12 (stereo not shown) [Chloroquine]		3	3	4	4	5	0.00	0.03	0.42	100	Number of mice which survived up to 11 days ([1]; dosage 10 mg/kg oral, listed as chloroquine): all mice; Chemosupression [8]: 100%; Concentrations not revealing cytotoxicity effects [9]: ≤ 50 µg/mL; Concentrations showing major cytotoxicity [9]: ≥ 500 µg/mL
C[C@H]1[C@H](OC(=O)CCC(=O)O)O[C@@H]2O[C@@]3(C)CC[C@H]4[C@H](C)CC[C@@H]1[C@@]24OO3 [Artesunate]		2	3	4	3	5	0.00	0.2	0.67	100	IC50 [2, 12]: 0.00263 ± 0.00038 µg/mL (≈ 0.00684 µM); Parasites observed under the microscope [1, 14]: No parasites were observed; ED50 [1, 13]: 2.94 mg/kg; Number of mice which survived up to 11 days ([1]; dosage 10 mg/kg oral, listed as artesunate): all mice; CC50 at 48 h [3]: 19.7 µg/mL (≈ 51.2 µM); ED50 ([10]; intraperitoneal route): < 1 mg/kg; ED50 ([10]; oral route, artesunate with 80 mg/kg as highest dosage): 1.8 mg/kg; ED50 [11]: 1.6 mg/kg
CNCC(=O)O [Sarcosine, N-methyl glycine]	did not show in vivo activity; also recorded: No activity	0	1	1	2	1					IC50 [2]: did not show in vitro activity; also recorded: No activity; ED50 ([1]; listed as sarcosine): not detectable; Solubility in water [6]: completely soluble
3-chloro-4-(4-chlorophenoxy) aniline	3.61 mg/kg	1	3	3	2	4	6.97	9.03	11.84	68	IC50 [2]: 0.02286 ± 0.00126 µg/mL
COc1cccc2c1C(=O)c1c(O)c3c(c(O)c1C2=O)C[C@@](O)(C(=O)CO)C[C@@H]3O[C@H]1C[C@H](N)[C@H](O)[C@H](C)O1 [Doxorubicin]											CC50 at 48 h [3]: 1.96 µg/mL (≈ 3.61 µM)
